Measured values: ChEMBL document CHEMBL1201862, “PubChem BioAssay data set” (2004)
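Briefly, cells in 96-well plates were exposed to five compound concentrations for 48 h, and endpoints were estimated by linear interpolation. The concentration for 50% growth inhibition is given as GI50.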 The source made the active and inactive calls. Cut-off read from the data, not from the text of the source: active = GI50 up to about 1.1 µM and inactive = higher.

Key:
Assay in all cases: growth of human tumour cells (NCI), 48 h
[1] = system: K562
[2] = system: EKVX
[3] = system: HOP-62
[4] = system: XF498
[5] = system: COLO 205
[6] = system: OVCAR-4
[7] = system: SN12C
[8] = system: A549
[9] = system: TK-10
[10] = system: NCI-H522
[11] = system: HOP-18
[12] = system: CCRF-CEM
[13] = system: NCI-H460
[14] = system: SR
[15] = system: OVCAR-3
[16] = system: M14
[17] = system: HCT-15
[18] = system: MOLT-4
[19] = system: SF-268
[20] = system: HCC 2998
[21] = system: OVCAR-5
[22] = system: UO-31
[23] = system: CAKI-1
[24] = system: HT-29
[25] = system: HCT-116
[26] = system: SF-539
[27] = system: Malme-3M
[28] = system: RPMI-8226
[29] = system: SW-620
[30] = system: LOX IMVI
[31] = system: IGROV-1
[32] = system: NCI-H23
[33] = system: KM12
[34] = system: DMS-114
[35] = system: RXF 393
[36] = system: SK-OV-3
[37] = system: DMS-273
[38] = system: KM-20L2
[39] = system: M19-MEL
[40] = system: HOP-92
[41] = system: SK-MEL-28
[42] = system: LXFL 529
[43] = system: UACC-62
[44] = system: OVCAR-8
[45] = system: SK-MEL-2
[46] = system: ACHN
[47] = system: DLD-1
[48] = system: SNB-19
[49] = system: U-251
[50] = system: NCI-H226
[51] = system: SF-295
[52] = system: SNB-78
[53] = system: HL-60
[54] = system: SNB-75
[55] = system: UACC-257
[56] = system: A498
[57] = system: SK-MEL-5

In the case of `O=C(O)c1cc2c(ncc3c(=O)n(-c4ccccc4)[nH]c32)s1`, the GI50 [1] is reported as > 100 µM (inactive), the GI50 [2] is reported as > 100 µM (inactive) and the GI50 [3] is reported as > 100 µM (inactive). The GI50 [4] was > 100 µM (inactive), the GI50 [5] was > 100 µM (inactive) and the GI50 [6] was > 100 µM (inactive). The GI50 [7] was > 100 µM (inactive), the GI50 [8] was > 100 µM (inactive) and the GI50 [9] was > 100 µM (inactive). For the same molecule, the GI50 [10] was > 100 µM (inactive), the GI50 [11] was > 100 µM (inactive) and the GI50 [12] was > 100 µM (inactive). For the same molecule, the GI50 [13] was > 100 µM (inactive), the GI50 [14] was > 100 µM (inactive) and the GI50 [15] was > 100 µM (inactive). The GI50 [16] was > 100 µM (inactive), the GI50 [17] was over 100 µM and the GI50 [18] was > 100 µM (inactive). The GI50 [19] was > 100 µM (inactive), the GI50 [20] was > 100 µM (inactive) and the GI50 [21] was > 100 µM (inactive). For the same molecule, the GI50 [22] was > 100 µM (inactive), the GI50 [23] was > 100 µM (inactive) and the GI50 [24] was > 100 µM (inactive). For the same molecule, the GI50 [25] was > 100 µM (inactive), the GI50 [26] was > 100 µM (inactive) and the GI50 [27] was > 100 µM (inactive). The GI50 [28] was > 100 µM (inactive), the GI50 [29] was > 100 µM (inactive) and the GI50 [30] was > 100 µM (inactive). The GI50 [31] was > 100 µM (inactive), the GI50 [32] was > 100 µM (inactive) and the GI50 [33] was > 100 µM (inactive). For the same molecule, the GI50 [34] was > 100 µM (inactive), the GI50 [35] was > 100 µM (inactive) and the GI50 [36] was > 100 µM (inactive). The GI50 [37] was > 100 µM (inactive), the GI50 [38] was > 100 µM (inactive) and the GI50 [39] was > 100 µM (inactive). For the same molecule, the GI50 [40] was > 100 µM (inactive), the GI50 [41] was > 100 µM (inactive) and the GI50 [42] was > 100 µM (inactive). For the same molecule, the GI50 [43] was > 100 µM (inactive), the GI50 [44] was > 100 µM (inactive) and the GI50 [45] was > 100 µM (inactive). For the same molecule, the GI50 [46] was > 100 µM (inactive), the GI50 [47] was > 100 µM (inactive) and the GI50 [48] was > 10 µM (inactive). For the same molecule, the GI50 [49] was > 100 µM (inactive) and the GI50 [50] was > 100 µM (inactive).

With `CN(/N=N/c1[nH]cnc1C(N)=O)C1CCCCC1` the GI50 [2] was > 100 µM (inactive), the GI50 [3] was > 100 µM (inactive) and the GI50 [4] was 75.7 µM (inactive). The GI50 [51] was 86.7 µM (inactive), the GI50 [5] was > 100 µM (inactive) and the GI50 [6] was 55.1 µM (inactive). The GI50 [7] was > 100 µM (inactive), the GI50 [8] was > 100 µM (inactive) and the GI50 [9] was 40 µM (inactive). For the same molecule, the GI50 [10] was > 100 µM (inactive), the GI50 [12] was 55.2 µM (inactive) and the GI50 [52] was > 100 µM (inactive). For the same molecule, the GI50 [13] was > 100 µM (inactive), the GI50 [53] was 29.5 µM (inactive) and the GI50 [14] was 30.7 µM (inactive). The GI50 [15] was 75.7 µM (inactive), the GI50 [16] was 72.9 µM (inactive) and the GI50 [17] was over 100 µM. For the same molecule, the GI50 [18] was 49.1 µM (inactive), the GI50 [19] was > 100 µM (inactive) and the GI50 [20] was > 100 µM (inactive). The GI50 [21] was > 100 µM (inactive), the GI50 [54] was 34.6 µM (inactive) and the GI50 [24] was > 100 µM (inactive). The GI50 [25] was 50.4 µM (inactive), the GI50 [26] was > 100 µM (inactive) and the GI50 [27] was 74.6 µM (inactive). For the same molecule, the GI50 [28] was 52.6 µM (inactive), the GI50 [29] was 69 µM (inactive) and the GI50 [30] was 42.2 µM (inactive). For the same molecule, the GI50 [55] was 62.1 µM (inactive), the GI50 [31] was > 100 µM (inactive) and the GI50 [32] was > 100 µM (inactive). For the same molecule, the GI50 [33] was > 100 µM (inactive), the GI50 [34] was > 100 µM (inactive) and the GI50 [35] was > 100 µM (inactive). For the same molecule, the GI50 [36] was 48.2 µM (inactive), the GI50 [37] was 41.2 µM (inactive) and the GI50 [38] was 81.3 µM (inactive). For the same molecule, the GI50 [39] was > 100 µM (inactive), the GI50 [56] was > 100 µM (inactive) and the GI50 [57] was > 100 µM (inactive). For the same molecule, the GI50 [40] was 55.1 µM (inactive), the GI50 [41] was > 100 µM (inactive) and the GI50 [42] was > 100 µM (inactive). The GI50 [43] was 61.7 µM (inactive), the GI50 [44] was 36.9 µM (inactive) and the GI50 [45] was 27.1 µM (inactive). For the same molecule, the GI50 [46] was > 100 µM (inactive), the GI50 [47] was > 100 µM (inactive) and the GI50 [48] was > 100 µM (inactive). For the same molecule, the GI50 [49] was > 100 µM (inactive) and the GI50 [50] was > 100 µM (inactive).
